According to patent publication US4720543A, “1a-7-substituted derivatives of mitomycin and uses thereof” (priority 1985, dated 1988):

How the values were obtained:
[1] = test system: peripheral leukocyte (WBC); assay: effects on peripheral leukocyte (WBC) count; assay type: in vivo, mice
Experimental: Comparative studies were performed with M-TAG and mitomycin C. Drug was dissolved in absolute ethanol, and then adjusted to a final concentration of 8% ethanol-92% sterile water. Blood samples obtained were diluted in 9.98 ml of Isoton (a neutral isotonic buffer solution) and counted in a Coulter counter after lysis with Zapoglobin (an enzyme solution which lyses red blood cells but not white blood cells). WBC counts are expressed as a percentage of values from control mice receiving drug vehicle only.

bone marrow = details: mice, rats, cats, dogs, and rhesus monkeys; cited from earlier work
Ehrlich ascites = assay: murine Ehrlich ascites antitumor activity; assay type: in vivo
Experimental: The antitumor activity of M-TAG for the murine Ehrlich ascities tumor was also determined. Ehrlich ascites was maintained i.p. in female BALB/C mice. For antitumor studies, 1×10^7 Ehrlich ascites cells (in 0.10 ml) were implanted i.p. in male BD2F1 mice. Drug was administered i.p. (single LD10 dose) one day after tumor implantation.

Pseudomonas Sp. = assay: antibiotic activity, bacterial growth inhibition in culture; assay type: cell-based
Experimental: (§1) Bacteria were grown in a standard growth culture at pH 7.2. After the cultures were incubated at 37° C. overnight and diluted into fresh medium, controls and the test antibiotics dissolved in 0.3% hydroxy propylcellulose (HPC) were added at various concentrations and then reincubated overnight. The measure of antibiotic activity was determined by the amount of bacterial growth inhibition as shown by measurement of the optical density at 660 nm.

Staphylococcus Sp. = assay: as above; assay type: cell-based
Experimental: as §1

WP2s (E. coli) = assay: as above; assay type: cell-based
Experimental: as §1

W3100 (E. coli) = assay: as above; assay type: cell-based
Experimental: as §1

Listeria Sp. = assay: as above; assay type: cell-based
Experimental: as §1

Klebsiella Pneumonia = assay: as above; assay type: cell-based
Experimental: as §1

P388 leukemia = assay: murine P388 leukemia antitumor activity; assay type: in vivo; details: approximate LD10 dose (M-TAG 250 mg/kg; mitomycin C 4 mg/kg), day one
Experimental: The murine P388 leukemia system, maintained intraperitoneally in female DBA/2 mice, was used to evaluate antitumor activity.
The P388 antileukemic activity of the test compound (M-TAG) was assessed by mean survival days, percentage increased life span or %ILS, and number of survivors after 45 days. The %ILS was calculated as follows:
%ILS=(T-C)/C×100 where T is the mean survival days of the treated mice and C is the mean survival days of the untreated mice

[2] = toxic single doses in normal CD2F1 mice
Experimental: Drug was administered intraperitoneally (i.p.) in a volume of 0.1 ml per 10 grams body weight.

in vitro = details: human, bone marrow cells
Experimental: The human bone marrow CFU-C assay measures human bone marrow cells committed to granulocyte-macrophage differentiation. This in vitro assay serves as a model for predicting the relative toxicity of an experimental drug on the granulocytic series of the bone marrow. […] Both drugs were dissolved in 0.5% DMSO, and nucleated human bone marrow cells were exposed in vitro (for 90 minutes at 37° C.) to varying concentrations of each drug. The cells were then plated in triplicate in 3% agar for the CFU-C assay, using GCT, (Giant Cell Tumor) extract (Gibco, Grand Island, N.Y.) as colony-stimulating factor.

B16 melanoma = assay: murine B16 melanoma antitumor activity; details: M-TAG 250 mg/kg or mitomycin C 4 mg/kg, i.p. day 1
Text: Activity against the murine B16 melanoma is currently being determined.

[3] = Escherichia coli, 0.04 mcg/ml, 37° C. overnight, read-out: amount of bacterial growth inhibition (first figure)
[4] = Escherichia coli, 0.4 mcg/ml, 37° C. overnight, read-out: amount of bacterial growth inhibition (first figure)
[5] = Escherichia coli, 4.0 mcg/ml, 37° C. overnight, read-out: amount of bacterial growth inhibition (first figure)
[6] = Escherichia coli, 40 mcg/ml, 37° C. overnight, read-out: amount of bacterial growth inhibition (first figure)
[7] = Escherichia coli, 400 mcg/ml, 37° C. overnight, read-out: amount of bacterial growth inhibition (first figure)

## CO[C@@]12[C@H](COC(N)=O)C3=C(C(=O)C(C)=C(N)C3=O)N1C[C@@H]1N[C@@H]12 [Mitomycin C, mitomycin C, reference compound]
[1]; 4 mg/kg i.p.
  WBC nadir, % of the control: 76%
[1]; LD10-range dose i.p., days 3, 4, 5, 6 and 10
  WBC depression / myelotoxicity (in words): significantly greater than that produced by an equitoxic dose of M-TAG (P<0.01)
[1]; LD10 dose
  decrease in WBC counts: 24%
Bone marrow
  toxicity in animals (in words): severe bone marrow depression and gastrointestinal damage, and were delayed in onset
Ehrlich ascites; 4 mg/kg i.p.
  mice alive on Day 30: 50%
Ehrlich ascites; single approximate LD10 dose i.p. (M-TAG 250 mg/kg; mitomycin C 4 mg/kg), one day after implantation
  % ILS: 82%
Pseudomonas Sp.; 0.04 mcg/ml
  optical density at 660 nm (figure in parentheses): 0.11
Pseudomonas Sp.; 0.4 mcg/ml
  optical density at 660 nm (figure in parentheses): 0.11
Pseudomonas Sp.; 4.0 mcg/ml
  optical density at 660 nm (figure in parentheses): 0.11
Pseudomonas Sp.; 40 mcg/ml
  optical density at 660 nm (figure in parentheses): 0.14
Pseudomonas Sp.; 400 mcg/ml
  optical density at 660 nm (figure in parentheses): 0.15
Pseudomonas Sp.; Pseudomonas, 0.04 mcg/ml, 37° C. overnight, read-out: amount of bacterial growth inhibition (first figure)
  inhibition at 0.04 µg/mL: 78%
Pseudomonas Sp.; Pseudomonas, 0.4 mcg/ml, 37° C. overnight, read-out: amount of bacterial growth inhibition (first figure)
  inhibition at 0.4 µg/mL: 78%
Pseudomonas Sp.; Pseudomonas, 4.0 mcg/ml, 37° C. overnight, read-out: amount of bacterial growth inhibition (first figure)
  inhibition at 4 µg/mL: 78%
Pseudomonas Sp.; Pseudomonas, 40 mcg/ml, 37° C. overnight, read-out: amount of bacterial growth inhibition (first figure)
  inhibition at 40 µg/mL: 72%
Pseudomonas Sp.; Pseudomonas, 400 mcg/ml, 37° C. overnight, read-out: amount of bacterial growth inhibition (first figure)
  inhibition at 400 µg/mL: 71%
Staphylococcus Sp.; 0.04 mcg/ml
  optical density at 660 nm (figure in parentheses): 0.52
Staphylococcus Sp.; 0.4 mcg/ml
  optical density at 660 nm (figure in parentheses): 0.03
Staphylococcus Sp.; 4.0 mcg/ml
  optical density at 660 nm (figure in parentheses): 0.03
Staphylococcus Sp.; 40 mcg/ml
  optical density at 660 nm (figure in parentheses): 0.041
Staphylococcus Sp.; 400 mcg/ml
  optical density at 660 nm (figure in parentheses): 0.046
Staphylococcus Sp.; Staphylococcus, 0.04 mcg/ml, 37° C. overnight, read-out: amount of bacterial growth inhibition (first figure)
  inhibition at 0.04 µg/mL: 30%
Staphylococcus Sp.; Staphylococcus, 0.4 mcg/ml, 37° C. overnight, read-out: amount of bacterial growth inhibition (first figure)
  inhibition at 0.4 µg/mL: 93%
Staphylococcus Sp.; Staphylococcus, 4.0 mcg/ml, 37° C. overnight, read-out: amount of bacterial growth inhibition (first figure)
  inhibition at 4 µg/mL: 93%
Staphylococcus Sp.; Staphylococcus, 40 mcg/ml, 37° C. overnight, read-out: amount of bacterial growth inhibition (first figure)
  inhibition at 40 µg/mL: 91%
Staphylococcus Sp.; Staphylococcus, 400 mcg/ml, 37° C. overnight, read-out: amount of bacterial growth inhibition (first figure)
  inhibition at 400 µg/mL: 90%
WP2s (E. coli); 0.04 mcg/ml
  optical density at 660 nm (figure in parentheses): 0.16
WP2s (E. coli); [3]
  inhibition at 0.04 µg/mL: 70%
WP2s (E. coli); [4]
  inhibition at 0.4 µg/mL: 86%
WP2s (E. coli); [5]
  inhibition at 4 µg/mL: 84%
WP2s (E. coli); [6]
  inhibition at 40 µg/mL: 85%
WP2s (E. coli); [7]
  inhibition at 400 µg/mL: 85%
W3100 (E. coli); 0.04 mcg/ml
  optical density at 660 nm (figure in parentheses): 0.13
W3100 (E. coli); 0.4 mcg/ml
  optical density at 660 nm (figure in parentheses): 0.051
W3100 (E. coli); 4.0 mcg/ml
  optical density at 660 nm (figure in parentheses): 0.06
W3100 (E. coli); [3]
  inhibition at 0.04 µg/mL: 74%
W3100 (E. coli); [4]
  inhibition at 0.4 µg/mL: 89%
W3100 (E. coli); [5]
  inhibition at 4 µg/mL: 88%
W3100 (E. coli); [6]
  inhibition at 40 µg/mL: 80%
W3100 (E. coli); [7]
  inhibition at 400 µg/mL: 80%
Listeria Sp.; 0.4 mcg/ml
  optical density at 660 nm (figure in parentheses): 0.13
Listeria Sp.; 4.0 mcg/ml
  optical density at 660 nm (figure in parentheses): 0.03
Listeria Sp.; 40 mcg/ml
  optical density at 660 nm (figure in parentheses): 0.018
Listeria Sp.; 400 mcg/ml
  optical density at 660 nm (figure in parentheses): 0.018
Listeria Sp.; Listeria, 0.04 mcg/ml, 37° C. overnight, read-out: amount of bacterial growth inhibition (first figure)
  inhibition at 0.04 µg/mL: 85%
Listeria Sp.; Listeria, 0.4 mcg/ml, 37° C. overnight, read-out: amount of bacterial growth inhibition (first figure)
  inhibition at 0.4 µg/mL: 95%
Listeria Sp.; Listeria, 4.0 mcg/ml, 37° C. overnight, read-out: amount of bacterial growth inhibition (first figure)
  inhibition at 4 µg/mL: 93%
Listeria Sp.; Listeria, 40 mcg/ml, 37° C. overnight, read-out: amount of bacterial growth inhibition (first figure)
  inhibition at 40 µg/mL: 96%
Listeria Sp.; Listeria, 400 mcg/ml, 37° C. overnight, read-out: amount of bacterial growth inhibition (first figure)
  inhibition at 400 µg/mL: 96%
Klebsiella Pneumonia; 0.04 mcg/ml
  optical density at 660 nm (figure in parentheses): 0.52
Klebsiella Pneumonia; 0.4 mcg/ml
  optical density at 660 nm (figure in parentheses): 0.086
Klebsiella Pneumonia; 4.0 mcg/ml
  optical density at 660 nm (figure in parentheses): 0.06
Klebsiella Pneumonia; 400 mcg/ml
  optical density at 660 nm (figure in parentheses): 0.13
Klebsiella Pneumonia; Klebsiella pneumoniae, 0.04 mcg/ml, 37° C. overnight, read-out: amount of bacterial growth inhibition (first figure)
  inhibition at 0.04 µg/mL: 30%
Klebsiella Pneumonia; Klebsiella pneumoniae, 0.4 mcg/ml, 37° C. overnight, read-out: amount of bacterial growth inhibition (first figure)
  inhibition at 0.4 µg/mL: 82%
Klebsiella Pneumonia; Klebsiella pneumoniae, 4.0 mcg/ml, 37° C. overnight, read-out: amount of bacterial growth inhibition (first figure)
  inhibition at 4 µg/mL: 87%
Klebsiella Pneumonia; Klebsiella pneumoniae, 40 mcg/ml, 37° C. overnight, read-out: amount of bacterial growth inhibition (first figure)
  inhibition at 40 µg/mL: 85%
Klebsiella Pneumonia; Klebsiella pneumoniae, 400 mcg/ml, 37° C. overnight, read-out: amount of bacterial growth inhibition (first figure)
  inhibition at 400 µg/mL: 75%
P388 leukemia
  % ILS: 84%
  Mean Survival: 21 days
[2]; single i.p. dose
  approximate LD10 dose (molar): ~12 µmol/kg
[2]; single i.p. dose toxic to 10% of normal mice
  LD10 dose: ~4 mg/kg
In vitro
  activity at 1.5 h, 1 µM: 30%
  activity at 1.5 h, 5 µM: 21%
  activity at 1.5 h, 10 µM: < 10%
B16 melanoma
  mice alive on day 20: 5 out of 10
B16 melanoma; all vehicle-control mice died
  mice alive on day 10: All
